What was measured:
[1] = Pharmacokinetic interaction study with pravastatin and Vytorin in healthy males: PK; conditions: Vytorin 10 mg/20 mg, Day 12 with 10-nitro-9(E)-octadec-9-enoic acid 150 mg daily versus Day 2 alone
[2] = test system: healthy male subjects; assay: Pharmacokinetic interaction study in healthy males: safety and tolerability; format: in vivo, human; conditions: pravastatin 40 mg, 10 healthy males
Method: Safety and tolerability was evaluated throughout the study. The timing of discharge was determined by the Investigator or designee based on safety and tolerability assessment. On dosing days, subjects remained in the research unit for a minimum of 1 h after dosing prior to discharge. On Day 4, on the first day of 10-nitro-9(E)-octadec-9-enoic acid dosing, subjects remained in the unit for 4 to 6 h after dosing prior to discharge to assess safety and tolerability.
Safety and PK assessments were evaluated throughout the study. During the in-house portion of the study, urine was collected over the 24-h period on Day 2 and Day 12.
Safety was evaluated by physical examinations; adverse events (AEs); vital signs (blood pressure, heart rate, respiratory rate); clinical laboratory values (hematology, biochemistry, and urinalysis), specifically, serum Mg and CPK and electrocardiograms (ECGs).
Triplicate ECGs were obtained just prior to the start of dosing on Day 1 and single ECGs were obtained at all other time points. The average of the 3 ECG interval measurements at the pre-dose time point was considered as baseline. All 12-Lead ECGs were obtained after the subject has rested in a fully supine position for at least 10 minutes. There were no clinically significant abnormalities reported on any electrocardiogram (ECG) parameter. There were no QT/QTcF interval prolongations observed during the study.

[3] = test system: deoxycorticosterone acetate (DOCA)/salt-induced model of FSGS; assay: DOCA salt study: RT-PCR analysis of kidney gene expression; format: in vivo, mice (129/sv strain); conditions: DOCA/salt mice kidney
Method: (§1) Induction of model: Male mice (129/sv strain) were purchased from Taconic Labs. The animals were uninephrectomized (Unx) at 6 weeks of age by the vendor and shipped one week after surgery. At 2 weeks post Unx, a DOCA or placebo pellet (21-day release pellets, 50 mg/pellet, Innovative Research of America, Sarasota, Fla.) was implanted s.c. All mice were then placed on a semisynthetic diet which contained a moderate fat content and a low phytoestrogen/anti-oxidant level, which approximates a normal human diet (4). A second DOCA or placebo pellet was implanted three weeks later.
(§2) Treatment: Mice were treated with placebo, 10-nitro-9(E)-octadec-9-enoic acid at a dose of 2.5 and 12.5 mg/kg, or enalapril (standard of care) for 4 weeks by oral gavage starting 2 weeks after the first DOCA implantation. One percent NaCl in tap water was given to each group except the sham control group. Body weight was measured weekly, and doses were readjusted based on the current body weight. Urine and blood samples were collected prior to treatment and at week 2 and 4 of treatment. Mice were terminated at week 4. Data is presented as the mean+SEM for the number of animals listed in each group.
RT-PCR Analysis of Gene Expression: A slice of kidney from each mouse was placed in Trizol solution (Invitrogen) immediately after harvesting and stored at −80° C. until analysis. Tissues were homogenized using a bead mill in 0.5 ml of Trizol solution and total RNA was extracted with chloroform (Sigma) and purified using standard RNeasy mini kit (Qiagen), with on column DNase 1 (Qiagen) digestion to avoid non-specific fluorescence emission derived from the recognition of contaminating genomic DNA by the probe, according to manufacturer's recommendation. RNA samples were eluted in 30 μl of nuclease-free water and quantified using a Nanodrop. cDNA was generated from 2 μg of RNA by using Clontech Sprint PowerScript reagents according to manufacturer's protocol. Fluorogenic probes specific for genes assayed in the report were purchased from Applied Biosystems. PCR amplification and analysis of PCR reaction were performed and monitored using an ABI Prism 7900HT Sequence Detection System (TaqMan, Perkin-Elmer Applied Biosystem). Data analysis was carried out by using the Sequence Detection Systems v2.3 program (Applied Biosystems). For each cDNA sample the Ct value of each target sequence was normalized to reference gene (Ribosomal RNA-18S), and shown as fold changes to control group. Statistical analyses for gene expression data was performed using a two-tailed Student's t-test.

[4] = test system: deoxycorticosterone acetate (DOCA)/salt-induced model of FSGS; assay: DOCA salt study: serum and urine analyses; format: in vivo, mice (129/sv strain); conditions: DOCA/salt mice, enalapril 20 mg/kg/d in drinking water
Method: Induction of model: Male mice (129/sv strain) were purchased from Taconic Labs. The animals were uninephrectomized (Unx) at 6 weeks of age by the vendor and shipped one week after surgery. At 2 weeks post Unx, a DOCA or placebo pellet (21-day release pellets, 50 mg/pellet, Innovative Research of America, Sarasota, Fla.) was implanted s.c. All mice were then placed on a semisynthetic diet which contained a moderate fat content and a low phytoestrogen/anti-oxidant level, which approximates a normal human diet (4). A second DOCA or placebo pellet was implanted three weeks later. […] One percent NaCl in tap water was given to each group except the sham control group. Body weight was measured weekly, and doses were readjusted based on the current body weight. Urine and blood samples were collected prior to treatment and at week 2 and 4 of treatment. Mice were terminated at week 4. Data is presented as the mean+SEM for the number of animals listed in each group. Serum and urine analyses: Blood samples were collected from the retro-orbital sinus and samples were separated to serum. Serum and urine creatinine (enzymatic assay), blood urea nitrogen (BUN), and serum cholesterol were measured using a Cobas 400 plus bioanalyzer (Roche Diagnostics, IN). Urine samples were collected for 24 h using metabolic cages. Urine albumin was measured by immunoassay Albuwell M (Exocell Inc., Philadelphia, Pa.). Immuno-ELISA according to manufacturer's instructions was used to measure urine nephrin (Exocell Inc., Philadelphia, Pa.) and MCP-1 (Thermal Scientific, Waltham, Mass.). Kim-1 was measured using the E-90KIM Mouse ELISA Kit (Immunology Consultants Laboratory, Portland, Oreg.). Statistical analyses for serum and urine data was performed using a two-tailed Student's t-test.

[5] = test system: deoxycorticosterone acetate (DOCA)/salt-induced model of FSGS; assay: DOCA salt study: glomerular filtration rate (inulin); format: in vivo, mice (129/sv strain); conditions: DOCA/salt mice; enalapril 20 mg/kg/d in drinking water, 4 week timepoint
Method: Induction of model: Male mice (129/sv strain) were purchased from Taconic Labs. The animals were uninephrectomized (Unx) at 6 weeks of age by the vendor and shipped one week after surgery. At 2 weeks post Unx, a DOCA or placebo pellet (21-day release pellets, 50 mg/pellet, Innovative Research of America, Sarasota, Fla.) was implanted s.c. All mice were then placed on a semisynthetic diet which contained a moderate fat content and a low phytoestrogen/anti-oxidant level, which approximates a normal human diet (4). A second DOCA or placebo pellet was implanted three weeks later. […] One percent NaCl in tap water was given to each group except the sham control group. Body weight was measured weekly, and doses were readjusted based on the current body weight. Urine and blood samples were collected prior to treatment and at week 2 and 4 of treatment. Mice were terminated at week 4. Data is presented as the mean+SEM for the number of animals listed in each group. Glomerular Filtration Rate: Glomerular filtration rate (GFR) was performed at the 4 week timepoint using a FIT-GFR test kit for inulin according to manufacturer's instructions (BioPal, Worcester, Mass.). […] Serum was isolated and quantified by an inulin ELISA. Inulin serum clearance was determined by nonlinear regression using a one phase exponential decay formula according to manufacturer's instructions.

[6] = test system: deoxycorticosterone acetate (DOCA)/salt-induced model of FSGS; assay: DOCA/salt-induced mouse model of FSGS: renoprotection, body weight, blood pressure, organ/body weight ratios; format: in vivo, mice (129/sv strain); conditions: DOCA/salt mice, 4 weeks
Method: 10-nitro-9(E)-octadec-9-enoic acid, given orally after onset of renal injury, was evaluated for efficacy in a model for Focal Segmental Glomerular Sclerosis (FSGS) in humans. […] Mice were uni-nephrectomized and, after two weeks, implanted subcutaneously with DOCA (50 mg, 21-day release) or placebo sustained release pellets, with pellet replacement 3 weeks later. All groups, except the sham control group, also received 1% NaCl in tap water. 10-nitro-9(E)-octadec-9-enoic acid (daily oral gavage, 2.5 or 12.5 mg/kg) or enalapril (20 mg/kg/day in drinking water) treatments began 2 weeks after the first DOCA implantation and continued for 4 weeks. Enalapril was included for comparison because it is used as standard of care for FSGS and this is a positive control for the model.
as §1, §2

[7] = test system: deoxycorticosterone acetate (DOCA)/salt-induced model of FSGS; assay: DOCA salt study: histological assessment of kidney; format: in vivo, mice (129/sv strain); conditions: DOCA/salt mice; enalapril 20 mg/kg/d in drinking water, 4 weeks
Method: as §1, §2
Histological Assessment: Formalin fixed, paraffin embedded kidneys were sectioned at 3 microns and stained with hematoxylin and eosin (H&E), periodic acid-Schiff (PAS) and Masson's Trichrome for histological analysis. Slides were blindly evaluated by an experienced pathology investigator. Glomerular and tubular pathology, interstitial inflammation and interstitial fibrosis were semi-quantitatively scored on a scale of 0-4 as follows: 0=normal; 1=mild; 2=moderate; 3=marked; 4=severe.
Glomerular hypertrophy was evaluated by measuring glomerular area and expressed as a mean value of 50 glomeruli per kidney. Glomerular hypertrophy is an important marker for diabetic and hypertensive-mediated chronic kidney disease. […] This finding is consistent with unchanged gene expression profile for podocyte markers (Table 2), and seems reasonable given that the disease was relatively modest.

[8] = test system: deoxycorticosterone acetate (DOCA)/salt-induced model of FSGS; assay: DOCA salt study: urinary isoprostane and tetranor-PGDM by LC-MS; format: in vivo, mice (129/sv strain); conditions: DOCA/salt mice; end time point
Method: as §1, §2
Isoprostanes are a unique series of prostaglandin-like compounds formed in vivo via a non-enzymatic mechanism involving the free radical-initiated peroxidation of arachidonic acid. It has been shown that 8-iso-PGF2a (15-F2t-isoprostane) is the isoprostane that correlates best with increasing oxidative stress. Therefore, to assess the effect of treatment on oxidative stress, this isoform was measured using LC-MS. Also measured was tetranor-PGDM, a urinary metabolite of prostaglandin D2. […] On the other hand, elevated tetranor-PGDM was lowered with treatment of 10-nitro-9(E)-octadec-9-enoic acid and enalapril at the end time point (FIG. 18).

[9] = enalapril 20 mg/kg/d, normalized to 18S, fold changes to control group, mean ± SEM

## O=C1[C@H](CC[C@H](O)c2ccc(F)cc2)[C@@H](c2ccc(O)cc2)N1c1ccc(F)cc1 [ezetimibe]
[1]
  decrease of mean AUC(0-t) on co-administration: 5%
  decrease of mean Cmax on co-administration: 20%

## CC[C@H](C)C(=O)O[C@H]1C[C@H](O)C=C2C=C[C@H](C)[C@H](CC[C@@H](O)C[C@@H](O)CC(=O)O)[C@H]21 [pravastatin, reference compound]
[2]
  subjects with abdominal discomfort after administration: 1 subject

## CCC(C)(C)C(=O)O[C@H]1C[C@@H](C)C=C2C=C[C@H](C)[C@H](CC[C@@H]3C[C@@H](O)CC(=O)O3)[C@H]21 [simvastatin]
[1]
  increase of mean AUC(0-t) on co-administration: 25%
  increase of mean Cmax on co-administration: 10%

## CCOC(=O)[C@H](CCc1ccccc1)N[C@@H](C)C(=O)N1CCC[C@H]1C(=O)O [Enalapril, reference compound]
[3]; enalapril 20 mg/kg/d in drinking water, 4 weeks
  gene expression of MCP-1, osteopontin, collagen III, fibronectin and PAI-1 (mRNA, qRT-PCR): neither the high dose 10-nitro-9(E)-octadec-9-enoic acid nor enalapril had an effect
[3]; [9]
  Nephrin gene expression: 1.091 ± 0.14
  Podocin gene expression: 0.9991 ± 0.095
[4]
  Kim-1 in urine, relative to the DOCA group: trended to be decreased
[4]; 4 weeks
  albumin excretion: markedly reduced
  plasma cholesterol: reduced
  urinary nephrin levels: markedly reduced
[5]
  GFR (inulin method): trend toward an increase
[6]; all treatments
  blood pressure (mean arterial): none of the treatments, including enalapril, had a significant effect
[6]; enalapril 20 mg/kg/d in drinking water
  kidney/body weight and heart/body ratios: no effect
[7]
  glomerular hypertrophy (glomerular area, mean of 50 glomeruli per kidney): did not have an effect
  glomerulosclerosis: average scores and percent of glomerular damage (sclerosis): not significantly reduced
[8]
  urinary tetranor-PGDM: lowered

— patent US10537541B2, “Treatment of focal segmental glomerular sclerosis (FSGS) using therapeutically effective oral doses of 10-nitro-9(E)-octadec-9-enoic acid” (Complexa, Inc., priority 2015, dated 2020)
